Measurements published in PubChem BioAssay (NCI).
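Five concentrations, 48 hours, 96-well plates. The concentration for 50% growth inhibition is given as GI50. TGI: total growth inhibition.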

Assays:
Assay in all cases: DTP human tumour cell line panel, 48 h
MDA-MB-231 breast = tested on: MDA-MB-231 breast
K-562 leukemia = tested on: K-562 leukemia
UACC-257 melanoma = tested on: UACC-257 melanoma
COLO 205 colon = tested on: COLO 205 colon
HOP-62 NSCLC = tested on: HOP-62 NSCLC
HOP-92 NSCLC = tested on: HOP-92 NSCLC
EKVX NSCLC = tested on: EKVX NSCLC
MDA-MB-435 = tested on: MDA-MB-435
UACC-62 melanoma = tested on: UACC-62 melanoma
SK-MEL-28 melanoma = tested on: SK-MEL-28 melanoma

SMILES | TGI (MDA-MB-231 breast) | TGI (K-562 leukemia) | TGI (UACC-257 melanoma) | TGI (COLO 205 colon) | TGI (HOP-62 NSCLC) | TGI (HOP-92 NSCLC) | TGI (EKVX NSCLC) | TGI (MDA-MB-435) | TGI (UACC-62 melanoma) | TGI (SK-MEL-28 melanoma) | GI50 (COLO 205 colon) | GI50 (MDA-MB-435)
Cc1cnc2c(c1)C(=O)N(c1ccc(Oc3ccccc3)cc1)S2(=O)=O | > 100 µM | > 100 µM | > 100 µM | > 100 µM | > 100 µM | > 100 µM | > 100 µM | > 100 µM | > 100 µM | > 100 µM |  | 
C[Si](C)(C)OC1(C#N)c2ccccc2CCCC12CCCC2 (stereo unspecified) | > 100 µM | > 100 µM | 58.3 µM | > 100 µM | > 100 µM | 89.9 µM | > 100 µM | > 100 µM | > 100 µM | > 100 µM |  | 
c1ccc2c(c1)nnn2C1CCCCO1 (stereo unspecified) | > 100 µM | > 100 µM | > 100 µM | > 100 µM | > 100 µM | > 100 µM | > 100 µM | > 100 µM | > 100 µM | > 100 µM |  | 
CC1(C)CCC2=C(O1)c1ccccc1C(=Nc1ccc([N+](=O)[O-])cc1)C2=O | 43.2 µM | > 100 µM | 30.1 µM | 30.4 µM | 34.1 µM | > 100 µM | 32.7 µM | 29.2 µM | 30.9 µM | 29.8 µM | 16.8 µM | 15.8 µM
CCOP(=O)(OCC)C(Nc1ccc(Cl)cc1)c1ccc(F)cc1 (stereo unspecified) | 74.6 µM | 68.5 µM | 44 µM | 87.1 µM | 48.2 µM | 59.1 µM | > 100 µM | 39.7 µM | 29.3 µM | 41.7 µM |  | 
NS(=O)(=O)c1nnc(NS(=O)(=O)c2cccc3cccnc23)s1 | > 100 µM | > 100 µM | > 100 µM | > 100 µM | > 100 µM | > 100 µM | > 100 µM | > 100 µM | > 100 µM | > 100 µM |  | 
[N-]=[N+]=Nc1cc(=O)[nH]c2ccccc12 | > 100 µM | > 100 µM | > 100 µM | > 100 µM | > 100 µM | > 100 µM | 42.5 µM | > 100 µM | > 100 µM | > 100 µM |  | 
N=c1ncn(C/C=C/c2ccccc2)c2nc[nH]c12 | > 100 µM | > 100 µM | > 100 µM | > 100 µM | > 100 µM | > 100 µM | > 100 µM | > 100 µM | > 100 µM | > 100 µM |  | 
N=C1C=CC(=C(c2ccc(N)cc2)c2ccc(N)cc2)C=C1 | 32.5 µM | 27.1 µM | 18.1 µM | 5.83 µM | 16.8 µM | 12.7 µM | 51.4 µM | 19.7 µM | 15.3 µM | 26.1 µM |  | 
CCOc1ccc2c(c1)C(/C(C(Cl)=C(Cl)Cl)=[N+](/[O-])OC(=O)c1ccccc1)=N2 | > 100 µM | > 100 µM | > 100 µM | > 100 µM | > 100 µM | > 100 µM | > 100 µM | > 100 µM | > 100 µM | > 100 µM |  | 
NC(=Nc1ccccc1)N/N=C/c1c[nH]c2ccccc12 | 6.83 µM | 30.4 µM | 12.2 µM | 0.67 µM | 9.47 µM | 6.01 µM | 25 µM | 0.0649 µM | 6.84 µM | 8.77 µM |  | 
C1=CC2C(C3CN(c4ccccc4)N=C13)C1C3C4C=CC21C=CC43 (stereo unspecified) | > 100 µM | > 100 µM | > 100 µM | > 100 µM | > 100 µM | > 100 µM | > 100 µM | > 100 µM | > 100 µM | > 100 µM |  | 
Clc1nc2nc(N3CCNCC3)nc(N3CCCC3)c2[nH]1 | 31.8 µM | 52.7 µM | 37.1 µM | 31 µM | 36.2 µM | 37.2 µM | 31.8 µM | 34.5 µM | 31.8 µM | 39.6 µM |  | 
CCC[N+](C)(C)CCCNC(=O)c1c(O)c2ccccc2[nH]c1=O | > 100 µM | > 100 µM | > 100 µM | > 100 µM | > 100 µM | > 100 µM | > 100 µM | > 100 µM | > 100 µM | > 100 µM |  | 
CC1(C)C2CC3C(C)(C2)C31c1cc(Cl)ccc1N (stereo unspecified) | 30 µM | 23.5 µM | 26.4 µM | 33.2 µM | 29.4 µM | 28.6 µM | 33 µM | 25.1 µM | 29.1 µM | 31.3 µM |  | 
CCSC12OC3(CCCCCN3C1=O)C1C(=O)N(c3ccccc3)C(=O)C12 (stereo unspecified) | > 100 µM | > 100 µM | > 100 µM | > 100 µM |  | > 100 µM | > 100 µM | > 100 µM | > 100 µM | > 100 µM |  | 
